Measurements taken from US12595247B2, “Substituted pyrazolo piperidine carboxylic acids” (Bayer Aktiengesellschaft, priority 2020, dated 2026).
Structures can show the parent of a compound that is named as a salt.

What was measured:
[1] = target: T1, recombinant guanylate cyclase reporter cell line (Rattus norvegicus, UniProt P20595); assay: Effect on a recombinant guanylate cyclase reporter cell line; assay type: cell-based; details: for EC50: read-out: EC50 (half maximal effective concentration)
T1 construct: expressed in transfected cells; host or cells: recombinant reporter cell line
T1 sequence (P20595 1-619): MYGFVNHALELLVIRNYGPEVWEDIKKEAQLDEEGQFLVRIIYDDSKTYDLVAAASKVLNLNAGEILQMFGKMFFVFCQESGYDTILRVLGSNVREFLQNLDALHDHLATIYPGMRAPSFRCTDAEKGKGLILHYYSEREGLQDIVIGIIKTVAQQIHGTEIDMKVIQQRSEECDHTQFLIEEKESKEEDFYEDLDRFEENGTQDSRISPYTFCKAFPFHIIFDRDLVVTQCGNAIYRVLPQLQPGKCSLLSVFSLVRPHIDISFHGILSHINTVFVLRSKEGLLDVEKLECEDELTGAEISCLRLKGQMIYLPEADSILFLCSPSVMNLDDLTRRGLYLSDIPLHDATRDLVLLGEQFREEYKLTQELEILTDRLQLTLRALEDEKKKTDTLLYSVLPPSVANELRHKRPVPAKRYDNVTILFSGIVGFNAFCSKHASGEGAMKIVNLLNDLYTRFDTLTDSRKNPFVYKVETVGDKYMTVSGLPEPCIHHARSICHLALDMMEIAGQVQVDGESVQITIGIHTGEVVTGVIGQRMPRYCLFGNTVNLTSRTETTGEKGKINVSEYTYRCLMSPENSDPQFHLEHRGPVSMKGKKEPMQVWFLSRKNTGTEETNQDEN
T1 sequence (P19686 1-690 partner): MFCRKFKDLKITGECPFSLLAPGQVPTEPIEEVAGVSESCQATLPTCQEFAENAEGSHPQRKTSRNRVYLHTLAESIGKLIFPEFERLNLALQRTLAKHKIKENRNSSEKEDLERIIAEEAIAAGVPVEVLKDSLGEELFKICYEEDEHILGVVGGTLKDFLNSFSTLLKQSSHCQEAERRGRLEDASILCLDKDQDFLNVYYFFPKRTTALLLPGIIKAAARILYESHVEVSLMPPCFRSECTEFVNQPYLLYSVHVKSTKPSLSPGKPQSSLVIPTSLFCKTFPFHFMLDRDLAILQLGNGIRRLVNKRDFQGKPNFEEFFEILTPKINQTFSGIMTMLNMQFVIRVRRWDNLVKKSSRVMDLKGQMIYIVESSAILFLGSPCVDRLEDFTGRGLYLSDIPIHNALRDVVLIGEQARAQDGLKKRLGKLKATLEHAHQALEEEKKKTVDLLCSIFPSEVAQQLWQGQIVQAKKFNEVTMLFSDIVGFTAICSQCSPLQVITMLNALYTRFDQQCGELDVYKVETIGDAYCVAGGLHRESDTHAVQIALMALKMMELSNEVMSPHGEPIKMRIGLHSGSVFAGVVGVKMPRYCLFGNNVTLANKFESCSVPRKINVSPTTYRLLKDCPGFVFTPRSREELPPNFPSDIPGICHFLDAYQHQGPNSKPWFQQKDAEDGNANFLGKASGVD
Experimental: B-1. Effect on a Recombinant Guanylate Cyclase Reporter Cell Line
The cellular activity of the compounds according to the invention was determined using a recombinant guanylate cyclase reporter cell line, as described in F. Wunder et al., Anal. Biochem. 339, 104-112 (2005).

[2] = Pharmacokinetic parameters following intravenous and oral administration in rats; assay type: in vivo, male Wistar rats
Description: (§1) • Klaus Witte, Kai Hu, Johanna Swiatek, Claudia Müssig, Georg Ertl and Björn Lemmer: Experimental heart failure in rats: effects on cardiovascular circadian rhythms and on myocardial β-adrenergic signaling. Cardiovasc Res 47 (2): […], 2000; Kozo Okamoto: Spontaneous hypertension in rats. Int Rev Exp Pathol 7: 227-270, 1969; Maarten van den Buuse: Circadian Rhythms of Blood Pressure, Heart Rate, and Locomotor Activity in Spontaneously Hypertensive Rats as Measured With Radio-Telemetry. Physiology & Behavior 55(4): 783-787, 1994. B-5. Determination of Pharmacokinetic Parameters Following Intravenous and Oral Administration
(§2) The pharmacokinetic parameters of the compounds according to the invention were determined in male Wistar rats and/or in female beagles and/or in cynomolgus monkeys and/or in male CD-1 mice. Intravenous administration in the case of mice and rats was carried out by means of a species-specific plasma/DMSO formulation, and in the case of dogs and monkeys by means of a water/PEG400/ethanol formulation. In all species, oral administration of the dissolved substance was performed via gavage, based on a water/PEG400/ethanol formulation.
(§3) An internal standard (which may also be a chemically unrelated substance) was added to the samples of the compounds of the invention, calibration samples and qualifiers, and there followed protein precipitation by means of acetonitrile in excess. Addition of a buffer solution matched to the LC conditions, and subsequent vortexing, was followed by centrifugation at 1000 g. The supernatant was analysed by LC-MS/MS using C18 reversed-phase columns and variable mobile phase mixtures. The substances were quantified via the peak heights or areas from extracted ion chromatograms of specific selected ion monitoring experiments.
(§4) The plasma concentration/time plots determined were used to calculate the pharmacokinetic parameters such as AUC, Cmax, t1/2 (terminal half-life), F (bioavailability), MRT (mean residence time) and CL (clearance), by means of a validated pharmacokinetic calculation program.
(§5) Since the substance quantification was performed in plasma, it was necessary to determine the blood/plasma distribution of the substance in order to be able to adjust the pharmacokinetic parameters correspondingly.
(§6) For this purpose, a defined amount of substance was incubated in K3 EDTA whole blood of the species in question in a rocking roller mixer for 20 min. After centrifugation at 1000 g, the plasma concentration was measured (by means of LC-MS/MS; see above) and determined by calculating the ratio of the Cblood/Cplasma value.

[3] = Pharmacokinetic parameters following intravenous and oral administration in dogs; assay type: in vivo, female beagles; details: for bioavailability: female, beagle, dog, plasma, read-out: F (bioavailability)
Description: as §1, §2, §3, §4, §5, §6

[4] = rats, intravenous administration
[5] = rats, oral administration (p.o.)

Structure (SMILES): CC(C)CN1CCN(c2ccc(-c3ccc(Cl)cc3N3CCCC(n4ncc(C(=O)O)c4C(F)F)C3)cc2)CC1 (single isomer, unassigned; enantiomer 2) [Example 3, 1-{1-[4-Chloro-4′-(4-isobutylpiperazin-1-yl)[biphenyl]-2-yl]piperidin-3-yl}-5-(difluoromethyl)-1H-pyrazole-4-carboxylic acid hydrochloride (Enantiomer 2)]
- MEC (minimum effective concentration) [1]: 0.6 nM
- EC50 [1]: 2.7 nM

Structure (SMILES): CC(C)CN1CCN(c2ccc(-c3ccc(Cl)cc3N3CCCC(n4ncc(C(=O)O)c4C(F)F)C3)cc2)CC1 (single isomer, unassigned; enantiomer 1) [Example 1, 1-[1-{4-Chloro-4′-[4-(2-methylpropyl)piperazin-1-yl][1,1′-biphenyl]-2-yl}piperidin-3-yl]-5-(difluoromethyl)-1H-pyrazole-4-carboxylic acid hydrochloride (Enantiomer 1)]
- AUCnorm [2, 4]: 1.77 kg·h/L
- AUCnorm [2, 5]: 0.57 kg·h/L
- F (bioavailability) [2, 5]: 31.4%
- MEC (minimum effective concentration) [1]: 2.3 nM

Structure (SMILES): O=C(O)c1cnn(-c2cccc(-c3cc(Cl)ccc3-c3ccc(N4CCN(CC5CC5)CC4)cc3)n2)c1C(F)(F)F [174 (WO2012/058132), reference compound]
- bioavailability ([2]; male, Wistar, rat, plasma, po, rats, oral administration (p.o.), read-out: F (bioavailability)): 81.8%
- AUCnorm [2, 4]: 0.77 kg·h/L
- AUCnorm [2, 5]: 0.63 kg·h/L
- bioavailability ([3]; oral administration (p.o.)): 41.6%
- AUCnorm ([3]; intravenous administration): 5.00 kg·h/L
- AUCnorm ([3]; oral administration (p.o.)): 2.08 kg·h/L

Structure (SMILES): CC(C)CN1CCN(c2ccc(-c3ccc(Cl)cc3N3CCCC(n4ncc(C(=O)O)c4C(F)F)C3)cc2)CC1 (single isomer, unassigned; enantiomer 2) [Example 2, 1-[1-{4-Chloro-4′-[4-(2-methylpropyl)piperazin-1-yl][1,1′-biphenyl]-2-yl}piperidin-3-yl]-5-(difluoromethyl)-1H-pyrazole-4-carboxylic acid (Enantiomer 2)]
- lower plasma clearance (CLplasma) in comparison to example 174 in WO 2012/058132 ([2]; in rats as well as in dogs): up to 10 times
- AUCnorm [2, 4]: 7.08 kg·h/L
- AUCnorm [2, 5]: 3.77 kg·h/L
- F (bioavailability) [2, 5]: 53.3%
- MEC (minimum effective concentration) [1]: 1.0 nM
- EC50 [1]: 8.6 nM
- bioavailability ([3]; oral administration (p.o.)): 82.8%
- AUCnorm ([3]; intravenous administration): 81.7 kg·h/L
- AUCnorm ([3]; oral administration (p.o.)): 67.7 kg·h/L
